How the values were obtained:
[1] = test system: CCRF-CEM; assay type: cell-based; conditions: Homo sapiens, one dose 10^-5 M, 48 h
[2] = test system: HL-60(TB); assay type: cell-based; conditions: Homo sapiens, one dose 10^-5 M, 48 h
[3] = test system: K-562; assay type: cell-based; conditions: Homo sapiens, K562, one dose 10^-5 M, 48 h
[4] = test system: MOLT-4; assay type: cell-based; conditions: Homo sapiens, one dose 10^-5 M, 48 h, read-out: % growth
[5] = test system: RPMI-8226; assay type: cell-based; conditions: Homo sapiens, one dose 10^-5 M, 48 h
[6] = test system: SR; assay type: cell-based; conditions: Homo sapiens, one dose 10^-5 M, 48 h
[7] = test system: A549/ATCC; assay type: cell-based; conditions: Homo sapiens, one dose 10^-5 M, 48 h
[8] = test system: EKVX; assay type: cell-based; conditions: Homo sapiens, one dose 10^-5 M, 48 h
[9] = test system: HOP-62; assay type: cell-based; conditions: Homo sapiens, one dose 10^-5 M, 48 h
[10] = test system: HOP-92; assay type: cell-based; conditions: Homo sapiens, one dose 10^-5 M, 48 h
[11] = test system: NCI-H226; assay type: cell-based; conditions: Homo sapiens, one dose 10^-5 M, 48 h
[12] = test system: NCI-H23; assay type: cell-based; conditions: Homo sapiens, one dose 10^-5 M, 48 h, read-out: % growth
[13] = test system: NCI-H460; assay type: cell-based; conditions: Homo sapiens, one dose 10^-5 M, 48 h, read-out: % growth
[14] = test system: NCI-H522; assay type: cell-based; conditions: Homo sapiens, one dose 10^-5 M, 48 h
[15] = test system: COLO 205; assay type: cell-based; conditions: Homo sapiens, one dose 10^-5 M, 48 h
[16] = test system: HCC-2998; assay type: cell-based; conditions: Homo sapiens, one dose 10^-5 M, 48 h
[17] = test system: HCT-116; assay type: cell-based; conditions: Homo sapiens, one dose 10^-5 M, 48 h, read-out: % growth
[18] = test system: HCT-15; assay type: cell-based; conditions: Homo sapiens, one dose 10^-5 M, 48 h, read-out: % growth
[19] = test system: HT29; assay type: cell-based; conditions: Homo sapiens, HT-29, one dose 10^-5 M, 48 h
[20] = test system: KM12; assay type: cell-based; conditions: Homo sapiens, one dose 10^-5 M, 48 h
[21] = test system: SW-620; assay type: cell-based; conditions: Homo sapiens, one dose 10^-5 M, 48 h
[22] = test system: SF-268; assay type: cell-based; conditions: Homo sapiens, one dose 10^-5 M, 48 h, read-out: % growth
[23] = test system: SF-295; assay type: cell-based; conditions: Homo sapiens, one dose 10^-5 M, 48 h
[24] = test system: SF-539; assay type: cell-based; conditions: Homo sapiens, one dose 10^-5 M, 48 h
[25] = test system: SNB-19; assay type: cell-based; conditions: Homo sapiens, one dose 10^-5 M, 48 h, read-out: % growth
[26] = test system: SNB-75; assay type: cell-based; conditions: Homo sapiens, one dose 10^-5 M, 48 h
[27] = test system: U251; assay type: cell-based; conditions: Homo sapiens, U-251, one dose 10^-5 M, 48 h
[28] = test system: LOX IMVI; assay type: cell-based; conditions: Homo sapiens, one dose 10^-5 M, 48 h, read-out: % growth
[29] = test system: MALME-3M; assay type: cell-based; conditions: Homo sapiens, one dose 10^-5 M, 48 h
[30] = test system: M14; assay type: cell-based; conditions: Homo sapiens, one dose 10^-5 M, 48 h
[31] = test system: MDA-MB-435; assay type: cell-based; conditions: Homo sapiens, one dose 10^-5 M, 48 h, read-out: % growth
[32] = test system: SK-MEL-2; assay type: cell-based; conditions: Homo sapiens, one dose 10^-5 M, 48 h
[33] = test system: SK-MEL-28; assay type: cell-based; conditions: Homo sapiens, one dose 10^-5 M, 48 h
[34] = test system: SK-MEL-5; assay type: cell-based; conditions: Homo sapiens, one dose 10^-5 M, 48 h, read-out: % growth
[35] = test system: UACC-257; assay type: cell-based; conditions: Homo sapiens, one dose 10^-5 M, 48 h
[36] = test system: UACC-62; assay type: cell-based; conditions: Homo sapiens, one dose 10^-5 M, 48 h
[37] = test system: IGROV1; assay type: cell-based; conditions: Homo sapiens, IGROV-1, one dose 10^-5 M, 48 h, read-out: % growth
[38] = test system: OVCAR-3; assay type: cell-based; conditions: Homo sapiens, one dose 10^-5 M, 48 h
[39] = test system: OVCAR-4; assay type: cell-based; conditions: Homo sapiens, one dose 10^-5 M, 48 h
[40] = test system: OVCAR-5; assay type: cell-based; conditions: Homo sapiens, one dose 10^-5 M, 48 h
[41] = test system: OVCAR-8; assay type: cell-based; conditions: Homo sapiens, one dose 10^-5 M, 48 h
[42] = test system: NCI/ADR-RES; assay type: cell-based; conditions: Homo sapiens, one dose 10^-5 M, 48 h
[43] = test system: SK-OV-3; assay type: cell-based; conditions: Homo sapiens, one dose 10^-5 M, 48 h
[44] = test system: 786-0; assay type: cell-based; conditions: Homo sapiens, one dose 10^-5 M, 48 h
[45] = test system: A498; assay type: cell-based; conditions: Homo sapiens, one dose 10^-5 M, 48 h
[46] = test system: ACHN; assay type: cell-based; conditions: Homo sapiens, one dose 10^-5 M, 48 h
[47] = test system: CAKI-1; assay type: cell-based; conditions: Homo sapiens, CAKI-1, 48 h, one dose 10^-5 M, 48 h
[48] = test system: SN12C; assay type: cell-based, human; conditions: Homo sapiens, one dose 10^-5 M, 48 h
[49] = test system: TK-10; assay type: cell-based; conditions: Homo sapiens, one dose 10^-5 M, 48 h
[50] = test system: UO-31; assay type: cell-based; conditions: Homo sapiens, UO-31, 48 h, one dose 10^-5 M, 48 h
[51] = test system: PC-3; assay type: cell-based; conditions: Homo sapiens, one dose 10^-5 M, 48 h
[52] = test system: DU-145; assay type: cell-based; conditions: Homo sapiens, one dose 10^-5 M, 48 h
[53] = test system: MCF7; assay type: cell-based; conditions: Homo sapiens, one dose 10^-5 M, 48 h, read-out: % growth
[54] = test system: MDA-MB-231/ATCC; assay type: cell-based; conditions: Homo sapiens, one dose 10^-5 M, 48 h
[55] = test system: HS 578T; assay type: cell-based; conditions: Homo sapiens; one dose 10^-5 M, 48 h; HS 578T; read-out: % growth
[56] = test system: BT-549; assay type: cell-based; conditions: Homo sapiens, one dose 10^-5 M, 48 h
[57] = test system: T-47D; assay type: cell-based; conditions: Homo sapiens, T47D, one dose 10^-5 M, 48 h, read-out: % growth
[58] = test system: MDA-MB-468; assay type: cell-based; conditions: Homo sapiens, one dose 10^-5 M, 48 h
[59] = test system: full NCI 60 cell lines panel; conditions: for activity at 10 µM: Homo sapiens, 60 cell, 48 h, read-out: Mean % growth; for activity on all 60 cancer cell lines tested (in words): one dose

CN(C)c1ccc(-c2nc(S)nc(N)c2C(=N)NN=Cc2ccccc2)cc1 [Compound 4a, 4-Amino-6-[4-(dimethylamino)phenyl]-2-mercapto-N'-[phenylmethylene] pyrimidine-5-carboximidohydrazide]
% cell growth at 10 µM [1]: 82%
% growth at 10 µM [2]: 94.7%
% growth at 10 µM [3]: 107%
activity at 10 µM [4]: 106%
% growth at 10 µM [5]: 89.8%
percent cell growth at 10 µM [6]: 104%
% growth at 10 µM [7]: 103%
% cell growth at 10 µM [8]: 96.3%
% growth at 10 µM [9]: 109%
% growth at 10 µM [10]: 114%
% growth at 10 µM [11]: 98.6%
activity at 10 µM [12]: 104%
activity at 10 µM [13]: 104%
% growth at 10 µM [14]: 99.4%
% growth at 10 µM [15]: 140%
% growth at 10 µM [16]: 113%
activity at 10 µM [17]: 110%
activity at 10 µM [18]: 99.9%
% growth at 10 µM [19]: 101%
% growth at 10 µM [20]: 107%
% growth at 10 µM [21]: 108%
activity at 10 µM [22]: 104%
% cell growth at 10 µM [23]: 104%
% growth at 10 µM [24]: 106%
activity at 10 µM [25]: 102%
% growth at 10 µM [26]: 101%
% growth at 10 µM [27]: 111%
activity at 10 µM [28]: 98.3%
% growth at 10 µM [29]: 105%
% growth at 10 µM [30]: 106%
activity at 10 µM [31]: 99.4%
% growth at 10 µM [32]: 108%
% cell growth at 10 µM [33]: 105%
activity at 10 µM [34]: 103%
percent cell growth at 10 µM [35]: 106%
% growth at 10 µM [36]: 97.9%
activity at 10 µM [37]: 111%
% growth at 10 µM [38]: 102%
% growth at 10 µM [39]: 101%
percent cell growth at 10 µM [40]: 111%
% growth of cells at 10 µM [41]: 115%
cell growth percent at 10 µM [42]: 104%
% growth at 10 µM [43]: 118%
% growth at 10 µM [44]: 102%
% growth at 10 µM [45]: 107%
% growth at 10 µM [46]: 101%
% growth at 10 µM [47]: 99%
% growth at 10 µM [48]: 103%
% cell growth at 10 µM [49]: 105%
% cell growth at 10 µM [50]: 75%
percent cell growth at 10 µM [51]: 85.1%
% growth at 10 µM [52]: 104%
activity at 10 µM [53]: 93.1%
% growth at 10 µM [54]: 109%
activity at 10 µM [55]: 113%
% cell growth at 10 µM [56]: 103%
activity at 10 µM [57]: 105%
percent cell growth at 10 µM [58]: 117%
activity at 10 µM [59]: 104%
activity on all 60 cancer cell lines tested (in words) [59]: weak activity

CN(C)c1ccc(-c2nc(S)nc(N)c2C(=N)NN=Cc2ccc(Cl)cc2)cc1 [Compound 4b, 4-amino-N'-[(4-chlorophenyl)methylene]-6-[4-(dimethylamino)phenyl]-2-mercapto pyrimidine-5-carboximidohydrazide]
% cell growth at 10 µM [1]: 76.3%
% growth at 10 µM [2]: 91.8%
% growth at 10 µM [3]: 98.5%
activity at 10 µM [4]: 101%
% growth at 10 µM [5]: 79.1%
percent cell growth at 10 µM [6]: 98.7%
% growth at 10 µM [7]: 98.4%
% cell growth at 10 µM [8]: 91.8%
% growth at 10 µM [9]: 109%
% growth at 10 µM [10]: 118%
% growth at 10 µM [11]: 99.8%
activity at 10 µM [12]: 101%
activity at 10 µM [13]: 99.8%
% growth at 10 µM [14]: 92.4%
% growth at 10 µM [15]: 137%
% growth at 10 µM [16]: 94.3%
activity at 10 µM [17]: 100%
activity at 10 µM [18]: 92.3%
% growth at 10 µM [19]: 92.7%
% growth at 10 µM [20]: 92.9%
% growth at 10 µM [21]: 102%
activity at 10 µM [22]: 97.5%
% cell growth at 10 µM [23]: 96.8%
% growth at 10 µM [24]: 98%
activity at 10 µM [25]: 98.8%
% growth at 10 µM [26]: 95.2%
% growth at 10 µM [27]: 106%
activity at 10 µM [28]: 103%
% growth at 10 µM [29]: 98.7%
% growth at 10 µM [30]: 96.9%
activity at 10 µM [31]: 96.2%
% growth at 10 µM [32]: 107%
% cell growth at 10 µM [33]: 103%
activity at 10 µM [34]: 97.6%
percent cell growth at 10 µM [35]: 99.7%
% growth at 10 µM [36]: 94%
activity at 10 µM [37]: 102%
% growth at 10 µM [38]: 102%
% growth at 10 µM [39]: 95.5%
percent cell growth at 10 µM [40]: 109%
% growth of cells at 10 µM [41]: 106%
cell growth percent at 10 µM [42]: 104%
% growth at 10 µM [43]: 120%
% growth at 10 µM [44]: 86.7%
% growth at 10 µM [45]: 92.1%
% growth at 10 µM [46]: 102%
% growth at 10 µM [47]: 102%
% growth at 10 µM [48]: 88.5%
% cell growth at 10 µM [49]: 90%
% cell growth at 10 µM [50]: 65.4%
percent cell growth at 10 µM [51]: 91.5%
% growth at 10 µM [52]: 100%
activity at 10 µM [53]: 90.9%
% growth at 10 µM [54]: 102%
activity at 10 µM [55]: 97.5%
% cell growth at 10 µM [56]: 95.7%
activity at 10 µM [57]: 88.3%
percent cell growth at 10 µM [58]: 107%
activity at 10 µM [59]: 98.2%
activity on all 60 cancer cell lines tested (in words) [59]: weak activity

Reference: article PMC10866072, “Design, synthesis, molecular modelling and biological evaluation of novel 6-amino-5-cyano-2-thiopyrimidine derivatives as potent anticancer agents against leukemia and apoptotic inducers” (Journal of Enzyme Inhibition and Medicinal Chemistry, 2024)
